Reference: patent publication US11850306B2, “Method for drying hydrogel comprising nanofibrillar cellulose and a dried hydrogel comprising nanofibrillar cellulose” (UPM-KYMMENE CORPORATION, priority 2016, dated 2023)
Values joined by “and” are separate entries in the source; they are usually repeats but may differ in a detail not shown here. Equal entries are not always repeated. Where two headings read alike, the source gives them in different places.

How the values were obtained:
[1] = nitrogen; cited from earlier work
[2] = cited from earlier work; for Solubility in aqueous media (intrinsic solubility): 25° C.
[3] = cited from earlier work
[4] = In vitro release studies: diffusion coefficients of model compounds from NFC hydrogels; type: physicochemical; settings: for Diffusion coefficient in NFC-hydrogels: pH 7.4, 37° C.
Method: (§1) In vitro drug release studies were performed with modified intrinsic dissolution disc dies filled with 1.07 g of formulations with a constant flat surface area of 1.33 cm^2. Discs were placed in 150 ml amber glass vessels on top of a holder. The vessels were filled to a final volume of 70 ml with pH 7.4 phosphate buffered saline (1×DPBS) and kept at 37° C. under constant magnetic stirring (400 rpm) on top of a multi-position magnetic stirrer IKA RT10 (IKA-Werke GmbH & Co KG, Germany). […] All experiments were done in triplicate.
The flow rate was 0.5 ml/min and the injection volume 5 μl. […] During the gradient run the mobile phase consisted of a mixture of acetonitrile and 15 mM phosphate buffer pH 2 in 25:75 ratio at 0-3 min. After 3 min the mobile phase composition was changed to 75:25 ratio. […] For nadolol, the used column was HSS-T3 1.8 μm (2.1×50 mm) (Waters, USA) at 30° C. The flow rate was 0.5 ml/min and the injection volume 5 μl. […] During the gradient run the mobile phase consisted of a mixture of acetonitrile and 15 mM phosphate buffer pH 2 in 10:90 ratio at 0-3 min. After 3 min the mobile phase composition was changed to 50:50 ratio.
200 μl of samples were pipetted into wells of 96-well OptiPlate plates (PerkinElmer, Finland). Excitation wavelength 490 nm, emission wavelength 520 nm and 12 nm bandwidth were used.
For metronidazole, absorbance was measured in 1 cm cell at 320 nm with 12 nm bandwidth against blank.
Sample and reagent were mixed thoroughly with a multi-channel pipet and incubated for 20 minutes at room temperature before absorbance measurement.
Mathematical equations were used for the modelling of diffusion controlled drug release that take into consideration structure of the device, the ratio of initial drug concentration to drug solubility and the device geometry. The diffusion coefficients were calculated by Higuchi equation (1) for small molecules with a presumption that these systems could be described as monolithic dispersions (Equations 1 and 2 below). For large molecules (1 kDa) equations we used to solve Fick's second law of diffusion and diffusion coefficients (2) with a presumption that these systems could be described as monolithic solutions (FIG. 2).
as §1, with “cm2.” for “cm^2.”

[5] = 3% NFC/exp (PEG6000 and trehalose), before freeze drying
[6] = 6.5% NFC/exp (PEG6000 and trehalose), before freeze drying
[7] = FD 3% NFC/exp, freeze dried and redispersed
[8] = FD 6.5% NFC/exp, freeze dried and redispersed

Row | Molecule | Onset degradation temp Td, N2 [1] [°C] | Solubility in aqueous media (intrinsic solubility) [2] | Solubility in aqueous media ([2]; pH 7) | Charge at pH 7.0 ([3]; pH 7.0) | Charge of compounds at pH 7.4 ([3]; pH 7.4) | Diffusion coefficients for model compounds in different NFC hydrogels ([4]; 3% NFC, no excipients) | Diffusion coefficients for model compounds in different NFC hydrogels [4, 5] | Diffusion coefficients for model compounds in different NFC hydrogels ([4]; 6.5% NFC, no excipients) | Diffusion coefficients for model compounds in different NFC hydrogels [4, 6] | Diffusion coefficients for model compounds in different NFC hydrogels [4, 7] | Diffusion coefficients for model compounds in different NFC hydrogels [4, 8] | Diffusion coefficient in NFC-hydrogels ([4]; NFC hydrogel 11804-3 (3.2%)) | Diffusion coefficient in NFC-hydrogels ([4]; NFC hydrogel 11814-1 (5.7%)) | Diffusion coefficient in NFC-hydrogels ([4]; NFC hydrogel 11814-3 (5.7%)) | Diffusion coefficient in NFC-hydrogels ([4]; NFC hydrogel 11815-3 (6.8%)) | Solubility in aqueous media ([2]; condition not given) [mg/mL] | pKa/pI [3]
1 | Cc1ncc([N+](=O)[O-])n1CCO [Metronidazole] | 160 | 10.5 (25° C.), mg/ml and 10.5 mg/ml | 10.5 (pH 7) mg/ml | ø | Metronidazole (ø) | 716.99 10^−8 cm^2/s | 657.41 10^−8 cm^2/s | 617.51 10^−8 cm^2/s | 617.16 10^−8 cm^2/s | 699.10 10^−8 cm^2/s | 660.18 10^−8 cm^2/s | 716.99 10^−8 cm^2/s | 609.51 10^−8 cm^2/s | 551.09 10^−8 cm^2/s | 617.51 10^−8 cm^2/s |  | 
2 | OC[C@H]1O[C@H](O[C@H]2O[C@H](CO)[C@@H](O)[C@H](O)[C@H]2O)[C@H](O)[C@@H](O)[C@@H]1O [Trehalose, D-(+)-trehalose dihydrate] | 230 |  |  |  |  |  |  |  |  |  |  |  |  |  |  |  | 
3 | Polyethylene glycol 6000 [PEG 6000] | 257 |  |  |  |  |  |  |  |  |  |  |  |  |  |  |  | 
4 | Lysozyme: Lysozyme from hen egg white, 14.7 kDa model compound |  |  |  |  |  | 3.53 10^−8 cm^2/s |  | 1.75 10^−8 cm^2/s |  |  |  | 3.53 10^−8 cm^2/s | 1.79 10^−8 cm^2/s | 2.57 10^−8 cm^2/s | 1.75 10^−8 cm^2/s | >10 | 
5 | CC(C)(C)NCC(O)COc1cccc2c1CC(O)C(O)C2 (stereo not drawn) [Nadolol] | 196.2 | 8.3 (25° C.), mg/ml | 8.3 (pH 7) mg/ml |  |  | 286.24 10^−8 cm^2/s | 292.92 10^−8 cm^2/s | 230.62 10^−8 cm^2/s | 245.04 10^−8 cm^2/s | 296.36 10^−8 cm^2/s | 267.21 10^−8 cm^2/s | 286.24 10^−8 cm^2/s | 273.21 10^−8 cm^2/s | 287.50 10^−8 cm^2/s | 230.62 10^−8 cm^2/s |  | 9.28
6 | CC(C(=O)O)c1cccc(C(=O)c2ccccc2)c1 (stereo not drawn) [Ketoprofen] |  |  |  |  |  | 152.62 10^−8 cm^2/s | 147.15 10^−8 cm^2/s | 141.86 10^−8 cm^2/s | 141.20 10^−8 cm^2/s | 129.97 10^−8 cm^2/s | 124.44 10^−8 cm^2/s | 152.62 10^−8 cm^2/s | 131.41 10^−8 cm^2/s | 148.23 10^−8 cm^2/s | 141.86 10^−8 cm^2/s |  | 
